Assays:
HL-60(TB) = experiment: Growth inhibition of human HL-60(TB) cells assessed as reduction in cell viability measured after 48 hrs by SRB assay; assay type: functional
K562 = experiment: Growth inhibition of human K562 cells assessed as reduction in cell viability measured after 48 hrs by SRB assay; assay type: functional
SR = experiment: Growth inhibition of human SR cells assessed as reduction in cell viability measured after 48 hrs by SRB assay; assay type: functional
A549 = experiment: Growth inhibition of human A549 cells assessed as reduction in cell viability measured after 48 hrs by SRB assay; assay type: functional
EKVX = experiment: Growth inhibition of human EKVX cells assessed as reduction in cell viability measured after 48 hrs by SRB assay; assay type: functional
HOP-92 = experiment: Growth inhibition of human HOP-92 cells assessed as reduction in cell viability measured after 48 hrs by SRB assay; assay type: functional
NCI-H226 = experiment: Growth inhibition of human NCI-H226 cells assessed as reduction in cell viability measured after 48 hrs by SRB assay; assay type: functional
NCI-H23 = experiment: Growth inhibition of human NCI-H23 cells assessed as reduction in cell viability measured after 48 hrs by SRB assay; assay type: functional
COLO 205 = experiment: Growth inhibition of human COLO 205 cells assessed as reduction in cell viability measured after 48 hrs by SRB assay; assay type: functional
HCC 2998 = experiment: Growth inhibition of human HCC 2998 cells assessed as reduction in cell viability measured after 48 hrs by SRB assay; assay type: functional
HCT-116 = experiment: Growth inhibition of human HCT-116 cells assessed as reduction in cell viability measured after 48 hrs by SRB assay; assay type: functional
HCT-15 = experiment: Growth inhibition of human HCT-15 cells assessed as reduction in cell viability measured after 48 hrs by SRB assay; assay type: functional
HT-29 = experiment: Growth inhibition of human HT-29 cells assessed as reduction in cell viability measured after 48 hrs by SRB assay; assay type: functional
KM12 = experiment: Growth inhibition of human KM12 cells assessed as reduction in cell viability measured after 48 hrs by SRB assay; assay type: functional
SF-268 = experiment: Growth inhibition of human SF-268 cells assessed as reduction in cell viability measured after 48 hrs by SRB assay; assay type: functional
SF-295 = experiment: Growth inhibition of human SF-295 cells assessed as reduction in cell viability measured after 48 hrs by SRB assay; assay type: functional
SNB-19 = experiment: Growth inhibition of human SNB-19 cells assessed as reduction in cell viability measured after 48 hrs by SRB assay; assay type: functional
SNB-75 = experiment: Growth inhibition of human SNB-75 cells assessed as reduction in cell viability measured after 48 hrs by SRB assay; assay type: functional
U-251 = experiment: Growth inhibition of human U-251 cells assessed as reduction in cell viability measured after 48 hrs by SRB assay; assay type: functional
LOX IMVI = experiment: Growth inhibition of human LOX IMVI cells assessed as reduction in cell viability measured after 48 hrs by SRB assay; assay type: functional
M14 = experiment: Growth inhibition of human M14 cells assessed as reduction in cell viability measured after 48 hrs by SRB assay; assay type: functional
MDA-MB-435 = experiment: Growth inhibition of human MDA-MB-435 cells assessed as reduction in cell viability measured after 48 hrs by SRB assay; assay type: functional
SK-MEL-2 = experiment: Growth inhibition of human SK-MEL-2 cells assessed as reduction in cell viability measured after 48 hrs by SRB assay; assay type: functional
SK-MEL-28 = experiment: Growth inhibition of human SK-MEL-28 cells assessed as reduction in cell viability measured after 48 hrs by SRB assay; assay type: functional
SK-MEL-5 = experiment: Growth inhibition of human SK-MEL-5 cells assessed as reduction in cell viability measured after 48 hrs by SRB assay; assay type: functional
UACC-257 = experiment: Growth inhibition of human UACC-257 cells assessed as reduction in cell viability measured after 48 hrs by SRB assay; assay type: functional
IGROV-1 = experiment: Growth inhibition of human IGROV-1 cells assessed as reduction in cell viability measured after 48 hrs by SRB assay; assay type: functional
OVCAR-3 = experiment: Growth inhibition of human OVCAR-3 cells assessed as reduction in cell viability measured after 48 hrs by SRB assay; assay type: functional
OVCAR-4 = experiment: Growth inhibition of human OVCAR-4 cells assessed as reduction in cell viability measured after 48 hrs by SRB assay; assay type: functional
OVCAR-5 = experiment: Growth inhibition of human OVCAR-5 cells assessed as reduction in cell viability measured after 48 hrs by SRB assay; assay type: functional
OVCAR-8 = experiment: Growth inhibition of human OVCAR-8 cells assessed as reduction in cell viability measured after 48 hrs by SRB assay; assay type: functional
NCI/ADR-RES = experiment: Growth inhibition of human NCI/ADR-RES cells assessed as reduction in cell viability measured after 48 hrs by SRB assay; assay type: functional
SK-OV-3 = experiment: Growth inhibition of human SK-OV-3 cells assessed as reduction in cell viability measured after 48 hrs by SRB assay; assay type: functional
786-0 = experiment: Growth inhibition of human 786-0 cells assessed as reduction in cell viability measured after 48 hrs by SRB assay; assay type: functional
A498 = experiment: Growth inhibition of human A498 cells assessed as reduction in cell viability measured after 48 hrs by SRB assay; assay type: functional
ACHN = experiment: Growth inhibition of human ACHN cells assessed as reduction in cell viability measured after 48 hrs by SRB assay; assay type: functional
CAKI-1 = experiment: Growth inhibition of human CAKI-1 cells assessed as reduction in cell viability measured after 48 hrs by SRB assay; assay type: functional
RXF 393 = experiment: Growth inhibition of human RXF 393 cells assessed as reduction in cell viability measured after 48 hrs by SRB assay; assay type: functional
TK-10 = experiment: Growth inhibition of human TK-10 cells assessed as reduction in cell viability measured after 48 hrs by SRB assay; assay type: functional
UO-31 = experiment: Growth inhibition of human UO-31 cells assessed as reduction in cell viability measured after 48 hrs by SRB assay; assay type: functional
PC-3 = experiment: Growth inhibition of human PC-3 cells assessed as reduction in cell viability measured after 48 hrs by SRB assay; assay type: functional
MCF7 = experiment: Growth inhibition of human MCF7 cells assessed as reduction in cell viability measured after 48 hrs by SRB assay; assay type: functional
MDA-MB-231 = experiment: Growth inhibition of human MDA-MB-231 cells assessed as reduction in cell viability measured after 48 hrs by SRB assay; assay type: functional
T47D = experiment: Growth inhibition of human T47D cells assessed as reduction in cell viability measured after 48 hrs by SRB assay; assay type: functional
[1] = molecular target: T1, Mitogen-activated protein kinase 8 (Homo sapiens, UniProt P45983); experiment: Inhibition of human JNK1 at 10 uM in presence of ATP relative to control
T1 sequence (P45983 whole entry): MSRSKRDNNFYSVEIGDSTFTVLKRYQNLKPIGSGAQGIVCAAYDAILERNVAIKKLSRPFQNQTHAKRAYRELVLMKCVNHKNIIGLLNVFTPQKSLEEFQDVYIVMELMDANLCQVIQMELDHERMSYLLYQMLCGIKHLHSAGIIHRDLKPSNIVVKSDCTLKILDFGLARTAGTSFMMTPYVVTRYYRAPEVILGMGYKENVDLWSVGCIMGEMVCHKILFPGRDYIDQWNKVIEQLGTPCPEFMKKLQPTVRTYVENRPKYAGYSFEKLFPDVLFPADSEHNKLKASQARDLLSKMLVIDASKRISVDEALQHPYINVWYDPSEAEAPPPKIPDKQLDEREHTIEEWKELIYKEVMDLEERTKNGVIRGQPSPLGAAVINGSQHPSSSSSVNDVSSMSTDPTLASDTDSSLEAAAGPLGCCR

[2] = molecular target: Mitogen-activated protein kinase 9 (Homo sapiens, UniProt P45984); experiment: Inhibition of human JNK2 at 10 uM in presence of ATP relative to control
Chain of Mitogen-activated protein kinase 9 (P45984 whole entry, looked up): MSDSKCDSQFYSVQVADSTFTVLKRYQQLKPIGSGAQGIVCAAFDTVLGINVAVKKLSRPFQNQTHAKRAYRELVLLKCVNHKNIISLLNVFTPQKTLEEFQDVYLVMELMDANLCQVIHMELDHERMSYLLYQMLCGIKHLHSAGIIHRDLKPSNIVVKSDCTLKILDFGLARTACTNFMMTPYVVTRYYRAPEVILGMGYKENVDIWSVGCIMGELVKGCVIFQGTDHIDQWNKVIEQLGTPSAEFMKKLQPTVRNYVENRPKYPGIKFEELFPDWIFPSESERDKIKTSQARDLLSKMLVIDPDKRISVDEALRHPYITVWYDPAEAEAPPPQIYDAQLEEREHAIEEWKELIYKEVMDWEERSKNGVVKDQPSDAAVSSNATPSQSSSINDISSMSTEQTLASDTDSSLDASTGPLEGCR

[3] = molecular target: T1, Mitogen-activated protein kinase 8; experiment: Inhibition of human JNK1 in presence of ATP

CC(C)(C)n1cc(-c2ccnc(NCCCNS(=O)(=O)c3ccc(Br)cc3)c2)c(-c2cccc(O)c2)n1
GI50 (HL-60(TB)): 2720 nM | GI50 (K562): 2020 nM | GI50 (SR): 2000 nM | GI50 (A549): 2110 nM | GI50 (EKVX): 1950 nM | GI50 (HOP-92): 1560 nM | GI50 (NCI-H226): 2310 nM | GI50 (NCI-H23): 1830 nM | GI50 (COLO 205): 1850 nM | GI50 (HCC 2998): 1920 nM | GI50 (HCT-116): 1310 nM | GI50 (HCT-15): 1480 nM | GI50 (HT-29): 1420 nM | GI50 (KM12): 2110 nM | GI50 (SF-268): 2400 nM | GI50 (SF-295): 1710 nM | GI50 (SNB-19): 2110 nM | GI50 (SNB-75): 1760 nM | GI50 (U-251): 1650 nM | GI50 (LOX IMVI): 1770 nM | GI50 (M14): 1780 nM | GI50 (MDA-MB-435): 1820 nM | GI50 (SK-MEL-2): 2130 nM | GI50 (SK-MEL-28): 1790 nM | GI50 (SK-MEL-5): 1520 nM | GI50 (UACC-257): 2010 nM | GI50 (IGROV-1): 1910 nM | GI50 (OVCAR-3): 2150 nM | GI50 (OVCAR-4): 1910 nM | GI50 (OVCAR-5): 1870 nM | GI50 (OVCAR-8): 2430 nM | GI50 (NCI/ADR-RES): 2210 nM | GI50 (SK-OV-3): 2520 nM | GI50 (786-0): 1660 nM | GI50 (A498): 1330 nM | GI50 (ACHN): 1990 nM | GI50 (CAKI-1): 2160 nM | GI50 (RXF 393): 1460 nM | GI50 (TK-10): 2510 nM | GI50 (UO-31): 1660 nM | GI50 (PC-3): 1600 nM | GI50 (MCF7): 1880 nM | GI50 (MDA-MB-231): 1740 nM | GI50 (T47D): 2480 nM | inhibition [1]: 98.8% | inhibition [2]: 99.3% | IC50 [3]: 97.8 nM

O=C1c2ccccc2-c2n[nH]c3cccc1c23
GI50 (HL-60(TB)): 42100 nM | GI50 (K562): 48600 nM | GI50 (SR): 13100 nM | GI50 (A549): 14900 nM | GI50 (EKVX): 20000 nM | GI50 (HOP-92): 37600 nM | GI50 (NCI-H226): 22900 nM | GI50 (NCI-H23): 23800 nM | GI50 (COLO 205): 19500 nM | GI50 (HCC 2998): 9620 nM | GI50 (HCT-116): 44600 nM | GI50 (HCT-15): 8040 nM | GI50 (HT-29): 25900 nM | GI50 (KM12): 2620 nM | GI50 (SF-268): 18400 nM | GI50 (SF-295): 22500 nM | GI50 (SNB-19): 50000 nM | GI50 (SNB-75): 16900 nM | GI50 (U-251): 23100 nM | GI50 (M14): 100000 nM | GI50 (MDA-MB-435): 12800 nM | GI50 (SK-MEL-2): 29000 nM | GI50 (SK-MEL-28): 37500 nM | GI50 (SK-MEL-5): 14600 nM | GI50 (UACC-257): 29500 nM | GI50 (IGROV-1): 11400 nM | GI50 (OVCAR-3): 15300 nM | GI50 (OVCAR-4): 31900 nM | GI50 (OVCAR-5): 24400 nM | GI50 (OVCAR-8): 22000 nM | GI50 (NCI/ADR-RES): 22600 nM | GI50 (SK-OV-3): 21000 nM | GI50 (786-0): 27100 nM | GI50 (A498): 7030 nM | GI50 (ACHN): 6640 nM | GI50 (CAKI-1): 3560 nM | GI50 (RXF 393): 20800 nM | GI50 (TK-10): 5930 nM | GI50 (UO-31): 10500 nM | GI50 (PC-3): 23300 nM | GI50 (MCF7): 49000 nM | GI50 (MDA-MB-231): 65300 nM | GI50 (T47D): > 100000 nM

CC(C)(C)n1cc(-c2ccnc(NCCCNS(=O)(=O)c3ccc(Cl)cc3)c2)c(-c2cccc(O)c2)n1
GI50 (HL-60(TB)): 2510 nM | GI50 (K562): 1280 nM | GI50 (SR): 1750 nM | GI50 (A549): 1970 nM | GI50 (EKVX): 2040 nM | GI50 (HOP-92): 1490 nM | GI50 (NCI-H226): 2110 nM | GI50 (NCI-H23): 1680 nM | GI50 (COLO 205): 1660 nM | GI50 (HCC 2998): 1760 nM | GI50 (HCT-116): 1670 nM | GI50 (HCT-15): 1520 nM | GI50 (HT-29): 1440 nM | GI50 (KM12): 2080 nM | GI50 (SF-268): 2180 nM | GI50 (SF-295): 1790 nM | GI50 (SNB-19): 2180 nM | GI50 (SNB-75): 1370 nM | GI50 (U-251): 1620 nM | GI50 (LOX IMVI): 1730 nM | GI50 (M14): 1720 nM | GI50 (MDA-MB-435): 1790 nM | GI50 (SK-MEL-2): 1920 nM | GI50 (SK-MEL-28): 1570 nM | GI50 (SK-MEL-5): 1440 nM | GI50 (UACC-257): 1860 nM | GI50 (IGROV-1): 1880 nM | GI50 (OVCAR-3): 1890 nM | GI50 (OVCAR-4): 1940 nM | GI50 (OVCAR-5): 1570 nM | GI50 (OVCAR-8): 2220 nM | GI50 (NCI/ADR-RES): 1920 nM | GI50 (SK-OV-3): 2350 nM | GI50 (786-0): 2030 nM | GI50 (A498): 1510 nM | GI50 (ACHN): 1970 nM | GI50 (CAKI-1): 2060 nM | GI50 (RXF 393): 1460 nM | GI50 (TK-10): 2380 nM | GI50 (UO-31): 1890 nM | GI50 (PC-3): 1360 nM | GI50 (MCF7): 1840 nM | GI50 (MDA-MB-231): 1870 nM | GI50 (T47D): 1820 nM | inhibition [1]: 100% | inhibition [2]: 98.9% | IC50 [3]: 43.8 nM
